Reference: patent US12116388B2, “Amylin receptor agonists” (Novo Nordisk A/S, priority 2022, dated 2024)
Starred links: 1 amine or outer side, 2 acyl side, 3 side chain; linkers in the order of their positions; H or OH if unused. Residues, ends and D or L forms follow the SMILES beside them. *: point of attachment. C18 diacid = O=C(O)CCCCCCCCCCCCCCCCC(=O)*; γGlu = O=C(O)[C@H](CCC(=O)[*:2])N[*:1]

Columns and labels:
[1] = Oral pharmacokinetic profiles in Beagle dogs (SNAC tablets); assay type: in vivo; conditions: oral tablet: 3 mg compound, 300 mg SNAC, 7.7 mg magnesium stearate; for half-life: male, dog, plasma, read-out: T½ (converted)
Method: To be able to evaluate oral exposure following tablet dosing, tablet compositions comprising the test substance and SNAC (sodium N-(8-(2-hydroxybenzoyl)amino)caprylate) were prepared by mixing test substance with roller compacted SNAC and magnesium stearate as, e.g., described in WO 2019/149880.
This assay was performed to measure the oral bioavailability of a compound. The assay determined the exposure of test compound following oral administration in Beagle dogs as described by relevant pharmacokinetic parameters and plasma concentration curves.
Preparation of tablets for oral administration: tablets containing test compound used for the assay described herein were immediate release SNAC-based tablets. The test compound was spray-dried as neutral sodium salt (pH 7-8). Dry granulation was carried out by roller compaction on a Gerteis MINI-PACTOR. Tablets containing 3 mg test compound, 300 mg sodium N-(8-(2-hydroxybenzoyl)amino)caprylate (SNAC) and 7.7 mg magnesium stearate were produced on at Kilian Style One using 7.2×12 mm punches.
Determination of the absorption following oral administration: eight (8) male Beagle dogs, 1 to 8 years of age and weighing approximately 10-15 kg at the start of the studies, were used. The dogs were group-housed in pens (12 hours light:12 hours dark), and fed individually and restrictedly once daily with Royal Canin Medium Adult dog (Royal Canin Products, China Branch, or Brogaarden A/S, Denmark). Exercise and group social were permitted daily, whenever possible. The dogs were used for repeated pharmacokinetic studies with a suitable wash-out period between successive dosing. An appropriate acclimatisation period was given prior to initiation of the first pharmacokinetic study. All handling, dosing and blood sampling of the animals were performed by trained and skilled staff. Before the studies the dogs were fasted overnight and from 0 to 4 h after dosing. Besides, the dogs were restricted to water 1 hour before dosing until 4 hours after dosing, but otherwise had ad libitum access to water during the whole period.
Tablets containing the test compound were administered in the following manner: 10 min prior to tablet administration the dogs were dosed subcutaneously with approximately 3.2 nmol/kg of glucagon. The tablets were placed in the back of the mouth of the dog to prevent chewing. The mouth was then closed, and 10 mL of tap water was given by a syringe to facilitate swallowing of the tablet. Blood was sampled at predefined time points for up till 288 hours after dosing to adequately cover the full plasma concentration-time absorption profile of the compound. For each blood sampling time point approximately 1.2 mL of whole blood was collected in a 1.5 mL EDTA coated tube, and the tube was gently turned to allowing mixing of the sample with the EDTA. Then, the blood samples were kept on ice until centrifugation (4 min, 4° C., 4000 rpm). Plasma was pipetted into Micronic tubes on dry ice and kept at −20° C. until analysis. Blood samples were taken as appropriate, for example from a venflon in the cephalic vein in the front leg for the first 2 hours and then with syringe from the jugular vein for the rest of the time points (the first few drops were allowed to drain from the venflon to avoid heparin saline from the venflon in the sample).
Bioanalysis was carried out as follows: plasma concentrations of test compound were assayed by plasma protein precipitation and analysed by liquid chromatography-mass spectrometry (LC-MS). Calibrators were prepared by spiking blank dog plasma with analytes to reach the final concentrations in the range typically from 0.5 to 200 nM. Calibrators, plasma blanks or study samples were prepared for LC-MS by protein precipitation by adding 3 volumes of ethanol followed by centrifugation at 4000 rpm at 4° C. for 1 h. The supernatant was diluted with 2 volumes of Milli-Q water containing 0.1% formic acid before injection on the LC-MS system. […]

[2] = target: T1, human amylin receptor (hAMYR3) (Homo sapiens, UniProt O60896+P30988); assay: Human amylin receptor (hAMYR3) in vitro potency assay, CRE-luciferase reporter in BHK cells; assay type: cell-based; conditions: BHK hAMYR3/CRE-Luc cells, 3 hours incubation, assay buffer with 1% ovalbumin
T1 construct: host or cells: BHK (Baby Hamster Kidney), Hollex-1 cell line further transfected with RAMP3
In short: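 Luminescence from a CRE-driven luciferase reporter reflects cAMP-mediated receptor activation. Peptides were serially diluted (7 concentrations, 7-fold steps, typically starting near 10 nM) in buffer with 1% ovalbumin and applied for 3 h at 37 °C to BHK cells co-expressing calcitonin receptor (a) and RAMP3.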

T1 sequence (P30988 25-474): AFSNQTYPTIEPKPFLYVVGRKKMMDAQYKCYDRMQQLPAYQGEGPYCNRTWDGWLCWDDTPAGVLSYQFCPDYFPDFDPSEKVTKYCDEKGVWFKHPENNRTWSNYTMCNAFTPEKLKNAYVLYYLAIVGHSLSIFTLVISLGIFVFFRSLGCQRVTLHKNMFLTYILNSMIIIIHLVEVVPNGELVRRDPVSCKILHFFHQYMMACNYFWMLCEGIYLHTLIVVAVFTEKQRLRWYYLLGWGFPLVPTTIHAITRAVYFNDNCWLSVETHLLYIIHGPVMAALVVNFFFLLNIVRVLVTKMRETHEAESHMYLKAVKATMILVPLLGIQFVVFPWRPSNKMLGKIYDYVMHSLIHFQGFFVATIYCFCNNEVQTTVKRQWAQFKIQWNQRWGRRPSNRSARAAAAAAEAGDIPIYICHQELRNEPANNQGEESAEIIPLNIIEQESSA
T1 sequence (O60896 24-148): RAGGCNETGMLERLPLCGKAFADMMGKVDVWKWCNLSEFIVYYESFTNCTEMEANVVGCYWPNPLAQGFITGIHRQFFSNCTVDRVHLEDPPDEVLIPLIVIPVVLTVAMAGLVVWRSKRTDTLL

Compound	half-life [1]	AUC/D [1]	Cmax/D [1]	EC50 [2]
CC[C@H](C)[C@H](NC(=O)[C@@H]1CCCN1C(=O)CNC(=O)[C@H](Cc1ccccc1)NC(=O)[C@H](CC(N)=O)NC(=O)[C@H](CC(=O)O)NC(=O)[C@H](CO)NC(=O)[C@H](CO)NC(=O)[C@H](Cc1c[nH]cn1)NC(=O)[C@H](Cc1c[nH]cn1)NC(=O)[C@H](CC(C)C)NC(=O)[C@H](Cc1ccccc1)NC(=O)[C@H](CCC(=O)O)NC(=O)[C@H](C)NC(=O)[C@H](CC(C)C)NC(=O)[C@H](CCCNC(=N)N)NC(=O)[C@H](C)NC(=O)[C@@H](NC(=O)[C@H](CCC(N)=O)NC(=O)[C@H](C)NC(=O)[C@@H](NC(=O)[C@H](CO)NC(=O)[C@H](CC(C)C)NC(=O)[C@H](Cc1c[nH]cn1)NC(=O)[C@H](CO)NC(=O)[C@H](C)NC(=O)CC[C@H](NC(=O)CCCCCCCCCCCCCCCCC(=O)O)C(=O)O)[C@@H](C)O)[C@@H](C)O)C(=O)N[C@@H](CC(C)C)C(=O)N1CCC[C@H]1C(=O)N1CCC[C@H]1C(=O)N[C@H](C(=O)N[C@@H](CC(=O)O)C(=O)N[C@H](C(=O)NCC(=O)N[C@@H](CO)C(=O)N[C@@H](CC(N)=O)C(=O)N[C@H](C(=O)N1CCC[C@H]1C(N)=O)[C@@H](C)O)C(C)C)[C@@H](C)O [Compound 14, N^1-[(4S)-4-carboxy-4-(17-carboxyheptadecanoylamino)butanoyl]-[Ala1,Ser2,His3,Leu4,Ser5,Ala7,Gln8,Ala10,Glu14,His17,Asp21,Pro25,Pro28,Pro29,Asp31,Pro37]-human amylin] ({C18 diacid-γGlu}-ASHLSTAQTARLAEFLHHSSDNFGPILPPTDVGSNTP-NH2)	113 h	20.76 kg·h/L	0.34 kg/L	1.28 pM
CC[C@H](C)[C@H](NC(=O)[C@H](C)NC(=O)CNC(=O)[C@H](Cc1ccccc1)NC(=O)[C@@H]1CCCN1C(=O)[C@H](CC(=O)O)NC(=O)[C@H](CO)NC(=O)[C@H](CO)NC(=O)[C@H](Cc1c[nH]cn1)NC(=O)[C@H](Cc1c[nH]cn1)NC(=O)[C@H](CC(C)C)NC(=O)[C@H](Cc1ccccc1)NC(=O)[C@H](CCC(=O)O)NC(=O)[C@H](C)NC(=O)[C@H](CC(C)C)NC(=O)[C@H](CCCNC(=N)N)NC(=O)[C@H](CCC(N)=O)NC(=O)[C@@H](NC(=O)[C@H](CCC(N)=O)NC(=O)[C@H](C)NC(=O)[C@@H](NC(=O)[C@H](CO)NC(=O)[C@H](CC(C)C)NC(=O)[C@H](Cc1c[nH]cn1)NC(=O)[C@H](CO)NC(=O)[C@H](C)NC(=O)CC[C@H](NC(=O)CCCCCCCCCCCCCCCCC(=O)O)C(=O)O)[C@@H](C)O)[C@@H](C)O)C(=O)N1CCC[C@H]1C(=O)N[C@@H](CO)C(=O)N[C@@H](CO)C(=O)N[C@H](C(=O)N[C@@H](CC(=O)O)C(=O)N[C@H](C(=O)NCC(=O)N1CCC[C@H]1C(=O)N[C@@H](CC(=O)O)C(=O)N[C@H](C(=O)N1CCC[C@H]1C(N)=O)[C@@H](C)O)C(C)C)[C@@H](C)O [Compound 8, N^1-[(4S)-4-carboxy-4-(17-carboxyheptadecanoylamino)butanoyl]-[Ala1,Ser2,His3,Leu4,Ser5,Ala7,Gln8,Glu14,His17,Asp21,Pro22,Pro27,Asp31,Pro34,Asp35,Pro37]-human amylin] ({C18 diacid-γGlu}-ASHLSTAQTQRLAEFLHHSSDPFGAIPSSTDVGPDTP-NH2)	121 h	17.52 kg·h/L	0.24 kg/L	1.5 pM
CC[C@H](C)[C@H](NC(=O)[C@@H]1CCCN1C(=O)CNC(=O)[C@H](Cc1ccccc1)NC(=O)[C@H](Cc1c[nH]cn1)NC(=O)[C@H](Cc1c[nH]cn1)NC(=O)[C@H](CC(C)C)NC(=O)[C@H](Cc1ccccc1)NC(=O)[C@H](CCC(=O)O)NC(=O)[C@H](C)NC(=O)[C@H](CC(C)C)NC(=O)[C@H](CCCNC(=N)N)NC(=O)[C@H](C)NC(=O)[C@@H](NC(=O)[C@H](CCC(N)=O)NC(=O)[C@H](C)NC(=O)[C@@H](NC(=O)[C@H](CO)NC(=O)[C@H](CC(C)C)NC(=O)[C@H](CCC(=O)O)NC(=O)CNC(=O)[C@H](C)NC(=O)CC[C@H](NC(=O)CCCCCCCCCCCCCCCCC(=O)O)C(=O)O)[C@@H](C)O)[C@@H](C)O)C(=O)N[C@@H](CC(C)C)C(=O)N1CCC[C@H]1C(=O)N1CCC[C@H]1C(=O)N[C@H](C(=O)N[C@@H](CC(=O)O)C(=O)N[C@H](C(=O)NCC(=O)N[C@@H](CO)C(=O)N[C@@H](CCC(=O)O)C(=O)N[C@H](C(=O)N1CCC[C@H]1C(N)=O)[C@@H](C)O)C(C)C)[C@@H](C)O [Compound 16, N^1-[(4S)-4-carboxy-4-(17-carboxyheptadecanoylamino)butanoyl]-[Ala1,Gly2,Glu3,Leu4,Ser5,Ala7,Gln8,Ala10,Glu14,His17,Pro25,Pro28,Pro29,Asp31,Glu35,Pro37],des-(19-22)-human amylin] ({C18 diacid-γGlu}-AGELSTAQTARLAEFLHHFGPILPPTDVGSETP-NH2)	95.8 h	35.59 kg·h/L	0.48 kg/L	1.25 pM
CC[C@H](C)[C@H](NC(=O)[C@H](C)NC(=O)CNC(=O)[C@H](Cc1ccccc1)NC(=O)[C@@H]1CCCN1C(=O)[C@H](CC(=O)O)NC(=O)[C@H](CO)NC(=O)[C@H](CO)NC(=O)[C@H](Cc1c[nH]cn1)NC(=O)[C@H](Cc1c[nH]cn1)NC(=O)[C@H](CC(C)C)NC(=O)[C@H](Cc1ccccc1)NC(=O)[C@H](CCC(=O)O)NC(=O)[C@H](C)NC(=O)[C@H](CC(C)C)NC(=O)[C@H](CCCNC(=N)N)NC(=O)[C@H](CCC(N)=O)NC(=O)[C@@H](NC(=O)[C@H](CCC(N)=O)NC(=O)[C@H](C)NC(=O)[C@@H](NC(=O)[C@H](CO)NC(=O)[C@H](CC(C)C)NC(=O)[C@H](CCC(N)=O)NC(=O)[C@H](CO)NC(=O)[C@H](C)NC(=O)CC[C@H](NC(=O)CCCCCCCCCCCCCCCCC(=O)O)C(=O)O)[C@@H](C)O)[C@@H](C)O)C(=O)N1CCC[C@H]1C(=O)N[C@@H](CO)C(=O)N[C@@H](CO)C(=O)N[C@H](C(=O)N[C@@H](CC(=O)O)C(=O)N[C@H](C(=O)NCC(=O)N1CCC[C@H]1C(=O)N[C@@H](CC(=O)O)C(=O)N[C@H](C(=O)N1CCC[C@H]1C(N)=O)[C@@H](C)O)C(C)C)[C@@H](C)O [Compound 24] ({C18 diacid-γGlu}-ASQLSTAQTQRLAEFLHHSSDPFGAIPSSTDVGPDTP-NH2)	120 h	31.21 kg·h/L	0.36 kg/L	1.49 pM
